Experimental data: PubChem BioAssay AID1259411 (Chemical Carcinogenesis Research Information System (CCRIS), 2018)
The source made the active and inactive calls. How the calls were made is not given here.

System: rodent carcinogenicity bioassays, tumor incidence
Experiment: CCRIS carcinogenicity studies
Method in brief: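 Archive of carcinogenicity, mutagenicity, tumor promotion and tumor inhibition results drawn from journals, NCI reports and other sources, expert-reviewed; covers 1985-2011 and is no longer updated.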

Measured: carcinogen call

C=C1C/C(=C/C)C(=O)O[C@@H]2CCN3CC=C(COC(=O)[C@@]1(O)CO)[C@H]23
active: Species: MOUSE, Strain/Sex: B6C3F1/FEMALE, Route: GAVAGE, Dose: 0, 3 MG/KG IN 0.1 M PHOSPHATE BUFFER 5 D/WK FOR 105 WK (STUDY DURATION: 105 WK), Tumor Site: Type of Lesion: LUNG (ALVEOLAR/BRONCHIOLAR): ADENOMA, ADENOMA OR CARCINOMA active; positive | Species: MOUSE, Strain/Sex: B6C3F1/MALE, Route: GAVAGE, Dose: 0, 0.1, 0.3, 1, 3 MG/KG IN 0.1 M PHOSPHATE BUFFER 5 D/WK FOR 105 WK (STUDY DURATION: 105 WK), Dose: 0, 0.1, 0.3, 1, 3 MG/KG IN 0.1 M PHOSPHATE BUFFER 5 D/WK FOR 105 WK (STUDY DURATION: 105 WK), Tumor Site: Type of Lesion: LIVER: HEMANGIOSARCOMA active; positive | Species: RAT, Strain/Sex: F344/FEMALE, Route: GAVAGE, Dose: 0, 1 MG/KG IN 0.1 M PHOSPHATE BUFFER 5 D/WK FOR 97 WK (STUDY DURATION: 97 WK), Tumor Site: Type of Lesion: LIVER: HEMANGIOSARCOMA, HEPATOCELLULAR ADENOMA, ADENOMA OR CARCINOMA, HEMATOPOIETIC SYSTEM: MONONUCLEAR CELL LEUKEMIA active; positive | Species: RAT, Strain/Sex: F344/MALE, Route: GAVAGE, Dose: 0, 1 MG/KG IN 0.1 M PHOSPHATE BUFFER 5 D/WK FOR 72 WK (STUDY DURATION: 72 WK), Tumor Site: Type of Lesion: LIVER: HEMANGIOSARCOMA, HEPATOCELLULAR ADENOMA, HEMATOPOIETIC SYSTEM: MONONUCLEAR CELL LEUKEMIA active; positive
inactive: Species: RAT, Strain/Sex: F344/FEMALE, Route: GAVAGE, Dose: 0, 0.01, 0.033, 0.1, 0.33 MG/KG IN 0.1 M PHOSPHATE BUFFER 5 D/WK FOR 105 WK (STUDY DURATION: 105 WK), Dose: 0, 0.01, 0.033, 0.1, 0.33 MG/KG IN 0.1 M PHOSPHATE BUFFER 5 D/WK FOR 105 WK (STUDY DURATION: 105 WK) inactive; negative

O=C(O)CCl
inactive: Species: MOUSE, Strain/Sex: B6C3F1/FEMALE, Route: GAVAGE, Dose: 0, 50, 100 MG/KG IN DEIONIZED WATER 5 D/WK FOR 104 WK (STUDY DURATION: 104 WK), Dose: 0, 50, 100 MG/KG IN DEIONIZED WATER 5 D/WK FOR 104 WK (STUDY DURATION: 104 WK) inactive; negative | Species: MOUSE, Strain/Sex: B6C3F1/MALE, Route: GAVAGE, Dose: 0, 50, 100 MG/KG IN DEIONIZED WATER 5 D/WK FOR 104 WK (STUDY DURATION: 104 WK), Dose: 0, 50, 100 MG/KG IN DEIONIZED WATER 5 D/WK FOR 104 WK (STUDY DURATION: 104 WK) inactive; negative | Species: RAT, Strain/Sex: F344/FEMALE, Route: GAVAGE, Dose: 0, 15, 30 MG/KG IN DEIONIZED WATER 5 D/WK FOR 104 WK (STUDY DURATION: 105 WK), Dose: 0, 15, 30 MG/KG IN DEIONIZED WATER 5 D/WK FOR 104 WK (STUDY DURATION: 105 WK) inactive; negative | Species: RAT, Strain/Sex: F344/MALE, Route: GAVAGE, Dose: 0, 15, 30 MG/KG IN DEIONIZED WATER 5 D/WK FOR 104 WK (STUDY DURATION: 105 WK), Dose: 0, 15, 30 MG/KG IN DEIONIZED WATER 5 D/WK FOR 104 WK (STUDY DURATION: 105 WK) inactive; negative | Species: RAT, Strain/Sex: F344/MALE, Route: ORAL, Dose: O, 0.05, 0.5, 2 G/L IN DRINKING WATER FOR 104 WK, THE 2.5 G/L CONCENTRATION WAS LOWERED TO 1.5 G/L AT 8 WK THEN TO 1 G/L, Dose: O, 0.05, 0.5 inactive; negative

CC(C)N=C=NC(C)C
inactive: Species: Mouse, Strain/Sex: B6C3F1/Female (50/Group), Route: Dermal, Dose: 0, 10, 20, 40 mg/kg in anhydrous ethanol 5 d/wk for 2 yr, Dose: 0, 10, 20, 40 mg/kg in anhydrous ethanol 5 d/wk for 2 yr inactive; negative | Species: Mouse, Strain/Sex: B6C3F1/Male (50/Group), Route: Dermal, Dose: 0, 10, 20, 40 mg/kg in anhydrous ethanol 5 d/wk for 2 yr, Dose: 0, 10, 20, 40 mg/kg in anhydrous ethanol 5 d/wk for 2 yr inactive; negative | Species: Rat, Strain/Sex: F344/N/Female (50/Group), Route: Dermal, Dose: 0, 10, 20, 40 mg/kg in anhydrous ethanol 5 d/wk for 2 yr, Dose: 0, 10, 20, 40 mg/kg in anhydrous ethanol 5 d/wk for 2 yr inactive; negative | Species: Rat, Strain/Sex: F344/N/Male (50/Group), Route: Dermal, Dose: 0, 10, 20, 40 mg/kg in anhydrous ethanol 5 d/wk for 2 yr, Dose: 0, 10, 20, 40 mg/kg in anhydrous ethanol 5 d/wk for 2 yr inactive; negative

C=CN(C)N=O
active: Species: RAT, Route: INHALATION, Tumor Site: Type of Lesion: NASAL CAVITY active; positive | Species: RAT, Route: ORAL, Tumor Site: Type of Lesion: ESOPHAGUS active; positive

COc1ccc(O)c(C(C)(C)C)c1
active: Species: HAMSTER, Strain/Sex: SYRIAN/MALE, Route: ORAL, Dose: 1% IN DIET FOR 24 WK (STUDY DURATION: 24 WK), Tumor Site: Type of Lesion: FORESTOMACH: PAPILLOMA active; positive

COC(C)(C)C
inactive: Species: MOUSE, Strain/Sex: CD-1/MALE, Route: INHALATION, Dose: 0, 400, 3000, 8000 PPM IN AIR 6 HR/D 5 D/WK FOR 18 MO (STUDY DURATION: 18 MO), Dose: 0, 400, 3000, 8000 PPM IN AIR 6 HR/D 5 D/WK FOR 18 MO (STUDY DURATION: 18 MO) inactive; negative | Species: RAT, Strain/Sex: F344/FEMALE, Route: INHALATION, Dose: 0, 400, 3000, 8000 PPM IN AIR 6 HR/D 5 D/WK FOR 24 MO (STUDY DURATION: 24 MO), Dose: 0, 400, 3000, 8000 PPM IN AIR 6 HR/D 5 D/WK FOR 24 MO (STUDY DURATION: 24 MO) inactive; negative
active: Species: MOUSE, Strain/Sex: CD-1/FEMALE, Route: INHALATION, Dose: 0, 400, 3000, 8000 PPM IN AIR 6 HR/D 5 D/WK FOR 18 MO (STUDY DURATION: 18 MO), Dose: 0, 400, 3000, 8000 PPM IN AIR 6 HR/D 5 D/WK FOR 18 MO (STUDY DURATION: 18 MO), Tumor Site: Type of Lesion: LIVER: ADENOMA active; positive | Species: RAT, Strain/Sex: F344/MALE, Route: INHALATION, Dose: 0, 400, 3000, 8000 PPM IN AIR 6 HR/D 5 D/WK FOR 24 MO (STUDY DURATION: 24 MO), Dose: 0, 400, 3000, 8000 PPM IN AIR 6 HR/D 5 D/WK FOR 24 MO (STUDY DURATION: 24 MO), Tumor Site: Type of Lesion: KIDNEY(RENAL TUBULE): ADENOMA OR CARCINOMA active; positive | Species: RAT, Strain/Sex: SPRAGUE-DAWLEY/FEMALE, Route: GAVAGE, Dose: 0, 250, 1000 MG/KG BW IN 1 ML OLIVE OIL 1/D 4 D/WK FOR 104 WK (STUDY DURATION: 166 WK), Dose: 0, 250, 1000 MG/KG BW IN 1 ML OLIVE OIL 1/D 4 D/WK FOR 104 WK (STUDY DURATION: 166 WK), Tumor Site: Type of Lesion: HEMOLYMPHORETICULAR SYSTEM: LYMPHOMA OR LEUKEMIA active; positive | Species: RAT, Strain/Sex: SPRAGUE-DAWLEY/FEMALE, Route: GAVAGE, Dose: 0, 250, 1000 MG/KG BW IN OLIVE OIL 1/D 4D/WK FOR 104 WK (STUDY DURATION: LIFE SPAN), Dose: 0, 250, 1000 MG/KG BW IN OLIVE OIL 1/D 4D/WK FOR 104 WK (STUDY DURATION: LIFE SPAN), Tumor Site: Type of Lesion: MULTIPLE SITES: LYMPHOMA OR LEUKEMIA active; positive | Species: RAT, Strain/Sex: SPRAGUE-DAWLEY/MALE, Route: GAVAGE, Dose: 0, 250, 1000 MG/KG BW IN 1 ML OLIVE OIL 1/D 4 D/WK FOR 104 WK (STUDY DURATION: 166 WK), Dose: 0, 250, 1000 MG/KG BW IN 1 ML OLIVE OIL 1/D 4 D/WK FOR 104 WK (STUDY DURATION: 166 WK), Tumor Site: Type of Lesion: TESTES: LEYDIG CELL TUMOR active; positive | Species: RAT, Strain/Sex: SPRAGUE-DAWLEY/MALE, Route: GAVAGE, Dose: 0, 250, 1000 MG/KG BW IN OLIVE OIL 1/D 4D/WK FOR 104 WK (STUDY DURATION: LIFE SPAN), Dose: 0, 250, 1000 MG/KG BW IN OLIVE OIL 1/D 4D/WK FOR 104 WK (STUDY DURATION: LIFE SPAN), Tumor Site: Type of Lesion: TESTES: LEYDIG CELL TUMOR active; positive

Oc1c(Cl)cc(Cl)c(Cl)c1Cc1c(O)c(Cl)cc(Cl)c1Cl
inactive: Species: RAT, Strain/Sex: F344/FEMALE, Route: ORAL, Dose: 0, 17, 50, 150 PPM IN DIET, Dose: 0, 17, 50, 150 PPM IN DIET inactive; negative | Species: RAT, Strain/Sex: F344/MALE, Route: ORAL, Dose: 0, 17, 50, 150 PPM IN DIET, Dose: 0, 17, 50, 150 PPM IN DIET inactive; negative
